Test results taken from PubChem BioAssay (NCI).
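Exposure lasted 48 hours, with cells grown in 96-well plates and compounds tested at five concentrations. At the TGI there is no net growth.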

How the values were obtained:
Experiment in all cases: NCI anticancer screen, dose series, 48 h
[1] = tested on: COLO 205 colon
[2] = tested on: RXF 393 renal
[3] = tested on: HL-60(TB) leukemia
[4] = tested on: SR leukemia
[5] = tested on: PC-3 prostate
[6] = tested on: CCRF-CEM leukemia
[7] = tested on: MALME-3M melanoma
[8] = tested on: RPMI-8226 leukemia
[9] = tested on: SK-MEL-28 melanoma
[10] = tested on: SF-295 CNS
[11] = tested on: LOX IMVI melanoma
[12] = tested on: HT29 colon
[13] = tested on: SNB-75 CNS
[14] = tested on: EKVX NSCLC
[15] = tested on: U251 CNS
[16] = tested on: NCI-H522 lung
[17] = tested on: DU-145 prostate
[18] = tested on: UACC-62 melanoma
[19] = tested on: BT-549 breast
[20] = tested on: OVCAR-4 ovarian

| Compound | TGI [1] [µM] | TGI [2] [µM] | TGI [3] [µM] | TGI [4] [µM] | TGI [5] [µM] | TGI [6] [µM] | TGI [7] [µM] | TGI [8] [µM] | TGI [9] [µM] | TGI [10] [µM] | TGI [11] [µM] | TGI [12] [µM] | TGI [13] [µM] | TGI [14] [µM] | TGI [15] [µM] | TGI [16] [µM] | TGI [17] [µM] | TGI [18] [µM] | TGI [19] [µM] | TGI [20] [µM] |
| --- | --- | --- | --- | --- | --- | --- | --- | --- | --- | --- | --- | --- | --- | --- | --- | --- | --- | --- | --- | --- |
| NS(=O)(=O)c1ccc(NNc2c3ccccc3nc3ccccc23)cc1 | 13.9 | 23 | 19.9 | 21.4 | 16.1 | 18.5 | 15.9 | 21.6 | 17.1 | 19.8 | 14.5 | 13.6 | 21.9 | 21.1 | 16.3 | 16.4 | 23.6 | 17.2 | 15.1 | 17.2 |
| O=C(O)C1(C(=O)O)CC1(C(=O)O)C(=O)O | > 100 | > 100 | > 100 | > 100 | > 100 | > 100 | > 100 |  | > 100 | > 100 | > 100 | > 100 | > 100 | > 100 | > 100 | > 100 | > 100 | > 100 | > 100 | > 100 |
| Cc1ccc(OCC2OC(C#N)C(Oc3ccc(C)cc3)C2Oc2ccc(C)cc2)cc1 (stereo not given) | > 100 | > 100 | > 100 | > 100 | > 100 | > 100 |  | > 100 | > 100 | > 100 |  | > 100 | > 100 | > 100 | > 100 | > 100 | > 100 | > 100 | > 100 | > 100 |
| Cc1cccc(N=Nc2c(C)nn(C(=O)CC(=O)Nc3ccccc3)c2C)c1 | > 100 | > 100 | > 100 | > 100 | > 100 | > 100 | > 100 | > 100 | > 100 | > 100 | > 100 | > 100 | > 100 | > 100 | > 100 | > 100 | > 100 | > 100 | > 100 | > 100 |
| O=S(=O)(N=S(c1ccc(Cl)cc1)c1ccc(Cl)cc1)c1ccccc1 | > 100 | > 100 | > 100 | > 100 | > 100 | > 100 | > 100 | > 100 | > 100 | > 100 | > 100 | > 100 | > 100 | > 100 | > 100 | > 100 | > 100 | > 100 | > 100 | > 100 |
| CN(C)CCn1c(=O)c2ccc3c4c(nn3CCN(C)C)c3cc(N)ccc3n(c1=O)c24 | 0.199 | 0.173 | 0.506 | > 42.5 | 0.114 |  | 0.257 | 60.7 | 0.394 | 0.584 | 0.127 |  | 0.0971 | 0.237 | 3.39 | 0.27 | 0.438 | 0.281 | 0.78 | 0.0511 |
